These results are taken from US20230212180A1, “SUBSTITUTED PYRAZINE COMPOUND, PHARMACEUTICAL COMPOSITION COMPRISING SAME, AND USE THEREOF” (Sichuan Kelun-Biotech Biopharmaceutical Co., Ltd., priority 2020, published 2023).

A short description of series [1]: Pharmacokinetic (PK) studies in Balb/c mouse. Type of series: in vivo. As to conditions: for AUC(0-t): read-out: AUClast; for half-life: read-out: T1/2 (converted). How it is done:
Test Example 7: Pharmacokinetic (PK) Studies in Balb/c Mouse
The compound of Example 12, Control Compound 1, Control Compound 2, and TNO-155 were administered to female Balb/c mice by intravenous injection (IV) and gavage (PO) respectively to estimate the pharmacokinetic properties. Dosing amounts for IV and PO routes were 1 mg/kg and 10 mg/kg, respectively. The solvent for IV route was 5% DMSO+5% Solutol+90% Saline, and the solvent for PO route was 0.5% MC (sodium methylcellulose). Blood was collected at various time points after IV and PO administration. The blood from the test groups of the compound of Example 12, Control Compound 1, and Control Compound 2 was anticoagulated using EDTA.K2 and preserved at −80° C. The blood from the test groups of TNO-155 was anticoagulated using EDTA.K2 and centrifuged to obtain plasma samples, and the plasma samples were preserved at −80° C.
The blood or plasma samples were subjected to protein precipitation and then to the LC-MS/MS analysis. WinNonlin 6.3 software was used to calculate the pharmacokinetic parameters by non-compartmental model, and the results were listed in Table 7 below.

Series [2] can be described thus: Pharmacokinetic (PK) studies in beagle dog. Type of series: in vivo. As to conditions: for AUC(0-t) / clearance / half-life: dog, male beagle dogs, plasma. How it is done: Test Example 8: Pharmacokinetic (PK) Studies in Beagle Dog
The compound of Example 12, Control Compound 1, Control Compound 2, and TNO-155 were administered to male beagle dogs by intravenous injection (IV) and gavage (PO) respectively to estimate the pharmacokinetic properties. Dosing amounts for IV and PO routes were 0.5 mg/kg and 2.5 mg/kg. The solvent for IV route was 5% DMSO+5% Solutol+90% Saline, and the solvent for PO route was 0.5% MC (sodium methylcellulose). Blood was collected at various time points after IV and PO administration. The blood was anticoagulated using EDTA.K2, and centrifuged to obtain plasma samples. The plasma samples were preserved at −80° C.
The plasma samples were subjected to protein precipitation and then to the LC-MS/MS analysis. WinNonlin 6.3 software was used to calculate the pharmacokinetic parameters by non-compartmental model, and the results were listed in Table 8 below.

The next series has as its system NCI-H358 cell xenograft. Description: Tumor inhibition in NCI-H358 xenograft model. In kind it is in vivo, Balb/c-nu mice. As to conditions: for TGI (%) (calculated by the tumor volume): oral, 21 days. The text has this:
Test Example 10: Experiment on Tumor Inhibition in NCI-H358 Xenograft Model
A subcutaneous xenograft mouse model was established by subcutaneously inoculating human non-small cell lung cancer cells NCI-H358 into the right scapulae of Balb/c-nu mice. After tumor formation, the mice were orally administered to evaluate the in vivo drug efficacy of different test compounds.
The NCI-H358 cells were subjected to monolayer in vitro culture. The culture conditions were as follows: 10% fetal bovine serum was added into the RPMI 1640 medium, and the cells were cultured in an incubator at 37° C. in air containing 5% CO2. The cells were digested twice/trice a week with pancreatin-EDTA for passaging. When the cells were in exponential growth phase, the cells were harvested, counted, and inoculated.
Before inoculated with tumor cells, the experimental mice were identified sequentially with numbered ear spikes specific to mice.
Every of the mice were subcutaneously inoculated with 1×10^6 NCI-H358 cells (suspended in 0.1 ml PBS+Matrigel Matrix) into the right scapulae. It was predicted that the mean tumor volume on Day 7 would be ˜200 mm^3. Based on the measurement results on Day 7, thirty mice with regular shapes and uniform volumes of tumor were screened, randomly divided into 5 groups and administered according to the experimental scheme (the dosing regimen was as shown in Table 10 (lasting for 21 days)). The vehicle was 5% DMSO+5% Solutol+90% H2O.
Mice were weighed and tumor volumes were measured trice a week, and the data were recorded. The tumor volume (V) was calculated by the following equation: V=½×a×b^2, wherein a and b indicated the length and width, respectively.
(§1) The anti-tumor efficacy was evaluated by tumor growth inhibition TGI (%). […] When the tumor regressed, TGI (%) (tumor volume)=100%−(TVt−TV0)/TV0×100%.
If the tumor was smaller than its initial volume, i.e., Vt<V0, it was defined as partial regression (PR) of the tumor. If the tumor disappeared completely, it was defined as complete regression (CR) of the tumor.

Another series concerns KYSE-520 cell xenograft. Put plainly: Tumor inhibition in KYSE-520 xenograft model. In kind it is in vivo, nu-nu mice. As to conditions: for TGI (%) (calculated by the tumor volume): once-daily oral, 21 consecutive days. How it is done: Test Example 9: Experiment on Tumor Inhibition in KYSE-520 Xenograft Model
A CDX xenograft animal model was established by subcutaneously inoculating KYSE-520 cells in nu-nu mice. After tumor formation, the mice were orally administered once daily to evaluate the in vivo drug efficacy of different test compounds.
The KYSE-520 cells were subjected to monolayer in vitro culture. The culture conditions were as follows: 10% fetal bovine serum was added into the RPMI 1640 medium, and the cells were cultured in an incubator at 37° C. in air containing 5% CO2. The cells were digested twice a week with […] for passaging. When the cells were in exponential growth phase, the cells were harvested and counted. The KYSE-520 cell strains cultured to the logarithmic growth phase were prepared into a single cell suspension (the cells were resuspended in PBS and mixed with Matrigel Matrix Phenol Red-free at a ratio of 1:1, and the final concentration of the cells was 5×10^7/ml). Each of the nude mice was inoculated with 0.1 ml subcutaneously into the right axilla of the nude mice to establish a xenograft model of nude mice with esophageal cancer. When the tumors grew to 130 mm^3, the nude mice were randomly divided into 5 groups and administered. The dosage regime was as shown in Table 9 (once-daily oral administration for 21 consecutive days). The vehicle was 5% DMSO+5% Solutol+90% H2O.
The animals were monitored daily for health and mortality. Routine inspections included observing the influences of drug treatment on the animals' daily behaviors, such as actions and activities, food (water) intake, physical signs, or other abnormalities, and recording them accordingly.
Mice were weighed and tumor volumes were measured twice a week, and the data were recorded. The tumor volume (V) was calculated by the following equation: V=½×a×b^2, wherein a and b indicated the length and width, respectively.
as §1

Another series relates to 100 kinase targets. Description: Kinase selectivity test, whole panel (ThermoFisher). Type of series: biochemical. How it is done: Test Example 11: Kinase Selectivity Test
1. Experimental Purpose: Tests for selectivity of the compounds of the present disclosure for a plurality of kinases were carried out to assess the safety risk of the compounds of the present disclosure.
2. Test institution: ThermoFisher USA
3. Testing methods: LanthaScreen binding, Z′-LYTE, Adapta
4. Test targets: 100 targets in total

The mark [3] stands for this setting: mouse, in vivo, female Balb/c mice, PO, 10 mg/kg, blood (TNO-155: plasma).
[4] abbreviates: oral administration for 21 consecutive days.
Setting [5] is: mouse, whole blood (TNO-155: plasma), female Balb/c mice, PO, 10 mg/kg, blood (TNO-155: plasma).

Structures are written as SMILES.

As for `C[C@@H]1OCC2(CCN(c3ncc(Sc4ccnc(N5CC(C(C)(C)O)C5)c4Cl)nc3CO)CC2)[C@@H]1N` [Example 12, 2-(1-(4-(5-((3S,4S)-4-amino-3-methyl-2-oxa-8-azaspiro[4.5]decan-8-yl)-6-(hydroxymethyl)pyrazin-2-ylthio)-3-chloropyridin-2-yl)azetidin-3-yl)propan-2-ol], the “pharmacokinetic properties (in words)” value was “excellent pharmacokinetic properties” in series [1] (Balb/c mice, 1 mg/kg by injection and 10 mg/Kg by mouth); “excellent pharmacokinetic properties” in series [2] (beagle dog, 0.5 mg/kg by injection and 2.5 mg/Kg by mouth). For the same compound, the AUC(0-t) amounted to 2590 ng·h/mL in series [1] (mouse, in vivo, female Balb/c mice, IV, 1 mg/kg, blood (TNO-155: plasma)); 12300 ng·h/mL in series [1] (setting [3]); 3090 ng·h/mL in series [2] (in vivo, IV, 0.5 mg/kg); 11000 ng·h/mL in series [2] (in vivo, PO, 2.5 mg/kg). Moreover, the clearance in series [1] (mouse, in vivo, female Balb/c mice, IV, 1 mg/kg, blood (TNO-155: plasma), read-out: Cl) was found to be 6.23 mL/min/kg; in series [2] (in vivo, IV, 0.5 mg/kg), 2.31 mL/min/kg. In addition, the half-life in series [1] (setting [3]) was 7.13 h; in series [2] (in vivo, PO, 2.5 mg/kg), 24.5 h. The “TGI (%) (calculated by the tumor volume)” value with NCI-H358 cell xenograft (3 mpk/QD) is listed as 84.35%; in the series with NCI-H358 cell xenograft (10 mpk/QD) it was 93.14%; in the series with KYSE-520 cell xenograft (10 mpk) it was 81.28%; in the series on KYSE-520 cell xenograft (30 mpk), 96.93%. Further, the “tumor inhibitory effect (in words)” value with NCI-H358 cell xenograft (setting [4]) and with KYSE-520 cell xenograft (setting [4]) was “remarkable tumor inhibitory effect” throughout. The “inhibitory effect on all of the 100 kinase targets” value with 100 kinase targets (all 100 kinase targets) is “weak inhibitory effect”.

Compound `C[C@@H]1OCC2(CCN(c3cnc(Sc4ccnc(N)c4Cl)c(N)n3)CC2)[C@@H]1N` [TNO-155, reference compound] displayed a Cl in series [1] (female Balb/c mice, IV, 1 mg/kg, blood (TNO-155: plasma)) of 24 mL/min/kg. Moreover, the AUC(0-t) is 672 ng·h/mL in series [1] (mouse, whole blood (TNO-155: plasma), female Balb/c mice, IV, 1 mg/kg, blood (TNO-155: plasma)); 7910 ng·h/mL in series [1] (setting [5]); 2350 ng·h/mL in series [2] (IV, 0.5 mg/kg); 10100 ng·h/mL in series [2] (PO, 2.5 mg/kg). For the same compound, the half-life is 1.69 h in series [1] (setting [5]) and 13.2 h in series [2] (PO, 2.5 mg/kg). The same compound had a clearance in series [2] (IV, 0.5 mg/kg) of 3.43 mL/min/kg. The “TGI (%) (calculated by the tumor volume)” value in the series on NCI-H358 cell xenograft (5 mpk/BID) is on record as 68.59%; in the series with NCI-H358 cell xenograft (10 mpk/QD), 58.49%; in the series on KYSE-520 cell xenograft (10 mpk), 55.49%; in the series on KYSE-520 cell xenograft (30 mpk), 72.74%. The “inhibitory effect on the remaining 86 targets” value in the series on 100 kinase targets (86 of the 100 kinase targets) is reported as “weak inhibitory effect”. Besides, in the series on 100 kinase targets (the 14 kinases of the table), the “inhibitory effect on the above 14 kinase targets” value is given as “strong inhibitory effect”.
